Results published in patent publication US12377107B2, “NT5C2 inhibitors for the treatment of chemotherapy-resistant acute lymphoblastic leukemia” (THE TRUSTEES OF COLUMBIA UNIVERSITY IN THE CITY OF NEW YORK, priority 2019, dated 2025).

Experiments:
NT5C2 = NT5C2 (Homo sapiens, UniProt P49902, R367Q); test: NT5C2 inhibition test (malachite green based assay detecting free inorganic phosphate); assay type: biochemical
[1] = test system: NT5C2 R367Q mutant mouse lymphoblasts; test: Cell viability of NT5C2 R367Q mutant mouse lymphoblasts in combination with 6-MP; assay type: cell-based; settings: for synergy with 6-MP to decrease cell viability: combination with 6-mercaptopurine, dose-dependent
Excerpt: Various embodiments relate to the synthesis and characterization of NT5C2 inhibitors, HTP47 and HTP48, for treatment of chemotherapy resistant T-ALL.
[drawing 5] • to decrease cell viability of NT5C2 R367Q mutant mouse lymphoblasts. As such, various embodiments may be used in combination with existing chemotherapies to treat T-ALL and relapsed T-ALL.
Various embodiments relate to ongoing in vitro and in vivo functional characterization and development of optimized inhibitors. […] Control experiment were performed for dose optimization of HTP47 and HTP48 in C2-2 NT5C2 WT mouse lymphoblasts. […] Synthesis reactions for HTP47 and HTP48 are also provided.

[2] = Dissolution of compound for NT5C2 inhibition test; assay type: physicochemical

Sequence of NT5C2 (P49902 whole entry R367Q): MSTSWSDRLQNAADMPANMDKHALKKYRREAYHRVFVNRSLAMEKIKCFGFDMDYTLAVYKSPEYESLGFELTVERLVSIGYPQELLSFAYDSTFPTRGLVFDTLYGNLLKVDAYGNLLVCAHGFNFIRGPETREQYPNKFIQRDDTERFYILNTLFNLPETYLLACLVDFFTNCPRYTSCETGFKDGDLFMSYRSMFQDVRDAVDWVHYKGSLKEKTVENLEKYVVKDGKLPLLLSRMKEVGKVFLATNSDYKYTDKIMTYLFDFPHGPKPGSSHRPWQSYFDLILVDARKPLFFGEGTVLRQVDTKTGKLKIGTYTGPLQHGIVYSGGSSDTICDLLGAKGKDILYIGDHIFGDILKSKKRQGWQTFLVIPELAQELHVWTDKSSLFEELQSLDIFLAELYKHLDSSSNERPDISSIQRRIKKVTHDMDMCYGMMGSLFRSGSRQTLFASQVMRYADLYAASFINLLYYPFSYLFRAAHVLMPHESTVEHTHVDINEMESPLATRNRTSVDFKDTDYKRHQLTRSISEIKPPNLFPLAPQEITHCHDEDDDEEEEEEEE

Row | SMILES | NT5C2 inhibitory activity (NT5C2; assay format not given) | NT5C2 inhibitory activity (NT5C2; malachite green based assay) | other results
1 | NC(=O)c1c(NC(=O)c2ccc3[nH]cnc3c2)sc2c1CCC2 [HTP41] | have NT5C2 inhibitory activity | – | –
2 | N#Cc1c(NC(=O)c2ccc3[nH]cnc3c2)sc2c1CCCC2 [HTP22] | have NT5C2 inhibitory activity | – | –
3 | Cc1nc2nc(C(=O)Nc3sc4c(c3C(N)=O)CCCC4)ccc2[nH]1 [HTP47] | have NT5C2 inhibitory activity | NT5C2 inhibitory activity | potency of 6-MP in combination, comparison of HTP47 and HTP48 ([1]; combination with 6-MP): greater potency of 6-MP in combination with HTP47 compared to HTP48; synergy with 6-MP to decrease cell viability [1]: act synergistically with 6-MP in a dose-dependent manner
4 | CC1(CO)CCN(C(=O)c2c[nH]c(=O)c3ccccc23)CC1 [Formula 35] | no NT5C2 inhibition activity | – | –
5 | CC(C)CCNC(=O)c1c[nH]c(=O)c2ccccc12 [Formula 38] | no NT5C2 inhibition activity was observed | – | dissolution [2]: did not dissolve
6 | Cn1cnc2cc(C(=O)Nc3sc4c(c3C(N)=O)CCCC4)ccc21 [HTP48] | have NT5C2 inhibitory activity | NT5C2 inhibitory activity | synergy with 6-MP to decrease cell viability [1]: act synergistically with 6-MP in a dose-dependent manner
7 | CNC1CCN(C(=O)c2c[nH]c(=O)c3ccccc23)CC1 [Formula 37] | no NT5C2 inhibition activity | – | –
8 | CCC1(CC)CCN(C(=O)c2c[nH]c(=O)c3ccccc23)CC1 [Formula 36] | no NT5C2 inhibition activity | – | –
9 | NC(=O)c1c(NC(=O)c2ccc3[nH]cnc3c2)sc2c1CCCC2 [HTP2] | have NT5C2 inhibitory activity | NT5C2 inhibitory activity | –
10 | NCC1CCCN(C(=O)c2c[nH]c(=O)c3ccccc23)C1 (centres unmarked) [Formula 39] | no NT5C2 inhibition activity | – | –
